Data on 52 molecules can be found in article PMC11550483 (2024).

Where a SMILES comes first, the peptide text is derived from it.

This experiment deals with SARS2 M^pro (Severe acute respiratory syndrome coronavirus 2, UniProt P0DTD1, P3395H). It is filed as biochemical, SARS-CoV-2.
Consider `Cc1ccc2c(CC(=O)NCc3ccco3)coc2c1C` [MWAC-0001762, Cc1ccc2c(CC(=O)NCc3occc3)coc2c1C], for which the “% inhibition (20 µM) biochemical” value was 11%.
For `Cc1cccc(/N=C2/NC(=O)/C(=C\c3ccc(N(C)C)cc3)S2)c1` [MWAC-0001734, CN(C)c1ccc(\C=C/2\S\C(=N/c3cccc(C)c3)\NC2=O)cc1] the value was 9%; for `CN1C(=O)C(O)(CC(=O)c2ccco2)c2cc(Cl)ccc21` (stereo not shown) [MWAC-0001773, CN1C(=O)C(O)(CC(=O)c2occc2)c3cc(Cl)ccc13], 0.63%.
For `Cc1ccc(NC(=S)Nc2ccccc2)nc1` [MWAC-0001820, Cc1ccc(NC(=S)Nc2ccccc2)nc1] the value was 2.27%.
In the case of `CSCCC(C=O)NC(=O)C(CC(C)C)NC(=O)C(CC(C)C)NC(C)=O` (stereo not drawn) [MWAC-0001889, CSCCC(NC(=O)C(CC(C)C)NC(=O)C(CC(C)C)NC(=O)C)C=O] (Ac-Leu-Leu-Met-aldehyde; configuration not given here) it was 99%.
For `O=C(CCl)Nc1cn(-c2ccccc2)nc1-c1ccc(F)cc1` [MWAC-0001848, Fc1ccc(cc1)c2nn(cc2NC(=O)CCl)c3ccccc3], the “% inhibition (20 µM) biochemical” value is 13%.
Take `COCCNc1nc2cc(C)ccc2[nH]1` [MWAC-0001822, COCCNc1nc2cc(C)ccc2[nH]1]: the “% inhibition (20 µM) biochemical” value worked out at 3%.
Take `COc1ccc(C2(C)CC(C)(C)N(C(C)=O)c3ccccc32)cc1` (stereo not shown) [MWAC-0001751, COc1ccc(cc1)C2(C)CC(C)(C)N(C(=O)C)c3ccccc23]: the “% inhibition (20 µM) biochemical” value came to 4.45%.
In the case of `O=C(Nc1ccc(Cl)cc1)N1CCc2ccccc21` [MWAC-0001717, Clc1ccc(NC(=O)N2CCc3ccccc23)cc1] it was 6%.
For `CCN(CC)c1ccc(/C=N/n2c(S)nnc2-c2cccnc2)c(O)c1` [MWAC-0001796, CCN(CC)c1ccc(\C=N\n2c(S)nnc2c3cccnc3)c(O)c1] the value was 9%.
In the case of `Cc1ccc2nc(-c3ccc(NC(=O)CCOc4ccccc4)cc3)sc2c1` [MWAC-0001713, Cc1ccc2nc(sc2c1)c3ccc(NC(=O)CCOc4ccccc4)cc3] it was 14%.
With `CCOc1ccccc1N1C(=O)CC(Sc2nnc(-c3ccccc3)[nH]2)C1=O` (stereo not shown) [MWAC-0001798, CCOc1ccccc1N2C(=O)CC(Sc3nnc([nH]3)c4ccccc4)C2=O], the “% inhibition (20 µM) biochemical” value is 2.63%.
Regarding `Cc1ccc(Cc2cnc(NC(=O)c3cccs3)s2)cc1` [MWAC-0001882, Cc1ccc(Cc2cnc(NC(=O)c3cccs3)s2)cc1], the “% inhibition (20 µM) biochemical” value came out at 0%.
As to `O=C1NC(=O)C(=Cc2cc(O)ccc2Br)C(=O)N1` [MWAC-0001754, Oc1ccc(Br)c(C=C2C(=O)NC(=O)NC2=O)c1], the “% inhibition (20 µM) biochemical” value stood at 21%.
For `Nc1c(C(=O)c2ccccc2)sc2nc(C3CC3)cc(-c3ccco3)c12` [MWAC-0001875, Nc1c(sc2nc(cc(c3occc3)c12)C4CC4)C(=O)c5ccccc5] the value was 0%; for `CCOc1ccccc1N1CCN(C(=O)c2ccc(Cl)c([N+](=O)[O-])c2)CC1` [MWAC-0001782, CCOc1ccccc1N2CCN(CC2)C(=O)c3ccc(Cl)c(c3)[N+](=O)[O-]], 0.51%; for `COc1ccc(C2=NN3C(C2)c2ccccc2OC3C(C)C)cc1` (stereo not shown) [MWAC-0001724, COc1ccc(cc1)C2=NN3C(Oc4ccccc4C3C2)C(C)C], 7%.
On to `O=C(Nc1nc2ccccc2[nH]1)c1ccc(Br)o1` [MWAC-0001805, Brc1oc(cc1)C(=O)Nc2nc3ccccc3[nH]2], for which the “% inhibition (20 µM) biochemical” value was 9%.
As for `O=C(Nc1nccs1)c1ccc(F)cc1[N+](=O)[O-]` [MWAC-0001876, [O-][N+](=O)c1cc(F)ccc1C(=O)Nc2nccs2], the “% inhibition (20 µM) biochemical” value was determined as 0%.
In the case of `CCc1ccc(C2CC(c3ccc(OC)c(OC)c3)=NN2C(C)=O)cc1` (stereo not shown) [MWAC-0001733, CCc1ccc(cc1)C2CC(=NN2C(=O)C)c3ccc(OC)c(OC)c3] it was 7%; in that of `O=Cc1cc(Cl)ccc1OCC(=O)Nc1ccc(F)cc1` [MWAC-0001783, Fc1ccc(NC(=O)COc2ccc(Cl)cc2C=O)cc1], 4%; in that of `CCCN1C(=O)C(O)(CC(=O)c2cc(OC)ccc2OC)c2cc(Br)ccc21` (stereo not shown) [MWAC-0001752, CCCN1C(=O)C(O)(CC(=O)c2cc(OC)ccc2OC)c3cc(Br)ccc13], 33%.
In the case of `CC(=O)Nc1ccc(OS(=O)(=O)c2ccc(Cl)c3ccccc23)cc1` [MWAC-0001803, CC(=O)Nc1ccc(OS(=O)(=O)c2ccc(Cl)c3ccccc23)cc1] it was 1.42%; in that of `C#CCN1C(=O)C(O)(CC(=O)c2ccc(F)cc2)c2ccccc21` (stereo not shown) [MWAC-0001730, OC1(CC(=O)c2ccc(F)cc2)C(=O)N(CC#C)c3ccccc13], 8%.
For `Cc1cc(C(=O)COn2nnc3ccccc32)c(C)n1-c1ccc2c(c1)OCO2` [MWAC-0001845, Cc1cc(C(=O)COn2nnc3ccccc23)c(C)n1c4ccc5OCOc5c4] the value was 20%.
For the molecule `Nc1ncnc(N)c1N=Nc1ccccc1` [MWAC-0001835, Nc1ncnc(N)c1N=Nc2ccccc2], the “% inhibition (20 µM) biochemical” value is reported as 6.65%.
As to `CCCCOC(=O)c1c(C)oc2ccc(NS(=O)(=O)c3ccc(OC)cc3)cc12` [MWAC-0001742, CCCCOC(=O)c1c(C)oc2ccc(NS(=O)(=O)c3ccc(OC)cc3)cc12], the “% inhibition (20 µM) biochemical” value came out at 11%.
With `CCOc1ccc2nc(NC(=O)C3CC3)sc2c1` [MWAC-0001795, CCOc1ccc2nc(NC(=O)C3CC3)sc2c1], the “% inhibition (20 µM) biochemical” value is reported as 8%.
In the case of `O=C1C(=O)N(Cc2ccc([N+](=O)[O-])cc2)c2ccc(Br)cc21` [MWAC-0001727, [O-][N+](=O)c1ccc(CN2C(=O)C(=O)c3cc(Br)ccc23)cc1] it was 65%; in that of `Cc1cc(CNC(=O)CCl)cc(C)c1O` [MWAC-0001858, Cc1cc(CNC(=O)CCl)cc(C)c1O], 45%; in that of `O=C(Nc1ccc(-c2cscn2)cc1)C1CCCN(Cc2ccccc2)C1` (stereo not shown) [MWAC-0001767, O=C(Nc1ccc(cc1)c2cscn2)C3CCCN(Cc4ccccc4)C3], 3.2%.
On to `COc1ccc(-c2cc(=O)c3ccccc3s2)cc1` [MWAC-0001878, COc1ccc(cc1)C2=CC(=O)c3ccccc3S2], for which the “% inhibition (20 µM) biochemical” value is reported as 0%.
In the case of `CCOC(=O)c1ccc(NC(=O)N2CCc3ccccc32)cc1` [MWAC-0001787, CCOC(=O)c1ccc(NC(=O)N2CCc3ccccc23)cc1] it was 3.21%.
For `O=C1CSC(=S)N1Cc1cccnc1` [MWAC-0001797, O=C1CSC(=S)N1Cc2cccnc2] the value was 7%; for `CCOc1ccccc1OCCCOc1ccccc1C=O` [MWAC-0001794, CCOc1ccccc1OCCCOc2ccccc2C=O], 2.44%.
For `CCOCCCNC(=O)c1ccc(Cl)c([N+](=O)[O-])c1` [MWAC-0001781, CCOCCCNC(=O)c1ccc(Cl)c(c1)[N+](=O)[O-]] the value was 0%; for `COc1ccc(C(=O)Nc2ccccc2N)cc1` [MWAC-0001806, COc1ccc(cc1)C(=O)Nc2ccccc2N], 1%; for `COc1ccccc1Nc1nc(-c2ccccn2)cs1` [MWAC-0001885, COc1ccccc1Nc2nc(cs2)c3ccccn3], 0%.
For `O=C1NC(=S)NC(=O)C1=Cc1ccccc1OS(=O)(=O)c1ccc2ccccc2c1` [MWAC-0001813, O=C1NC(=S)NC(=O)C1=Cc2ccccc2OS(=O)(=O)c3ccc4ccccc4c3], the “% inhibition (20 µM) biochemical” value came out at 4.38%.
For `O=C1OC(NC(=O)c2ccccc2)C(NC(=O)c2ccccc2)=C1Cl` (stereo not shown) [MWAC-0001833, ClC1=C(NC(=O)c2ccccc2)C(NC(=O)c3ccccc3)OC1=O] the value was 4%.
In the case of `COc1ccccc1N1CCN(C(=O)CCl)CC1` [MWAC-0001823, COc1ccccc1N2CCN(CC2)C(=O)CCl] it was 98%; in that of `CCN1C(=O)C(=O)c2cc(Cl)ccc21` [MWAC-0001750, CCN1C(=O)C(=O)c2cc(Cl)ccc12], 10%; in that of `Cc1nn(CC(=O)NCc2ccc3c(c2)OCO3)c(=O)c2c1cnn2C(C)(C)C` [MWAC-0000539, CC1=NN(CC(=O)NCc2ccc3OCOc3c2)C(=O)c4c1cnn4C(C)(C)C], 19%.
Take `Cc1cc(S(=O)(=O)NC(C)C)ccc1OCC(=O)Nc1cccc([N+](=O)[O-])c1` [MWAC-0001775, CC(C)NS(=O)(=O)c1ccc(OCC(=O)Nc2cccc(c2)[N+](=O)[O-])c(C)c1]: the “% inhibition (20 µM) biochemical” value came to 3.17%.
For the molecule `COc1ccc(C(CNC(=O)CCl)N2CCCCC2)cc1` (stereo not shown) [MWAC-0001849, COc1ccc(cc1)C(CNC(=O)CCl)N2CCCCC2], the “% inhibition (20 µM) biochemical” value was determined as 33%.
Turning to `O=C1/C(=C/c2ccc(F)cc2)SC(=S)N1Cc1cccnc1` [MWAC-0001802, Fc1ccc(\C=C\2/SC(=S)N(Cc3cccnc3)C2=O)cc1], the “% inhibition (20 µM) biochemical” value was determined as 7%.
`COc1cc(OC)cc(C(=O)Nc2ccc(OC(C)C)cc2)c1` [MWAC-0001801, COc1cc(OC)cc(c1)C(=O)Nc2ccc(OC(C)C)cc2]: the “% inhibition (20 µM) biochemical” value is reported as 5%.
In the case of `CSc1cccc(NC(=O)c2cnn3ccccc23)c1` [MWAC-0001883, CSc1cccc(NC(=O)c2cnn3ccccc23)c1] it was 0%; in that of `CCCOc1ccc(CN2C(=O)C(=O)c3ccccc32)cc1` [MWAC-0001830, CCCOc1ccc(CN2C(=O)C(=O)c3ccccc23)cc1], 5%.
For `CC(NC(=O)CCl)C1COc2ccccc2O1` (stereo not shown) [MWAC-0001857, CC(NC(=O)CCl)C1COc2ccccc2O1] the value was 26%.
Consider `COc1ccc2c(=O)cc(-c3ccc4c(c3)OCCO4)oc2c1` [MWAC-0001860, COc1ccc2C(=O)C=C(Oc2c1)c3ccc4OCCOc4c3], for which the “% inhibition (20 µM) biochemical” value was 100%.
In the case of `O=S(=O)(O)CCCN1/C(=C/C=C2\CCC(/C=C/c3sc4ccccc4[n+]3CCCS(=O)(=O)O)=C2N(c2ccccc2)c2ccccc2)Sc2ccccc21` [MWAC-0001204, OS(=O)(=O)CCCN1\C(=C\C=C\2/CCC(=C2N(c3ccccc3)c4ccccc4)\C=C\c5sc6ccccc6[n+]5CCCS(=O)(=O)O)\Sc7ccccc17] it was 8%.
